Series [1] in a line: Metabolic stability in human microsomes assessed as compound remaining measured after 10 mins. Format: ADME, Microsome. To be noted: read-out: Stability.
Series [2] in a line: Clearance in rat. Format: ADME. The conditions noted are these: in vivo.
Series [3] can be described thus: Selectivity ratio of IC50 for human 5-HT3A expressed in HEK293 cells to EC50 for rat alpha3beta4 nAChR expressed in HEK293 cells. Format: ADME, cell-based.
In series [4] the target is T1, Neuronal acetylcholine receptor subunit alpha-7 (Rattus norvegicus, UniProt Q05941). Description: Agonist activity at rat alpha7 nAChR expressed in HEK293 cells co-expressing human RIC3 measured for 2 mins by FLIPR assay. In kind it is cell-based.
T1 sequence (Q05941 whole entry): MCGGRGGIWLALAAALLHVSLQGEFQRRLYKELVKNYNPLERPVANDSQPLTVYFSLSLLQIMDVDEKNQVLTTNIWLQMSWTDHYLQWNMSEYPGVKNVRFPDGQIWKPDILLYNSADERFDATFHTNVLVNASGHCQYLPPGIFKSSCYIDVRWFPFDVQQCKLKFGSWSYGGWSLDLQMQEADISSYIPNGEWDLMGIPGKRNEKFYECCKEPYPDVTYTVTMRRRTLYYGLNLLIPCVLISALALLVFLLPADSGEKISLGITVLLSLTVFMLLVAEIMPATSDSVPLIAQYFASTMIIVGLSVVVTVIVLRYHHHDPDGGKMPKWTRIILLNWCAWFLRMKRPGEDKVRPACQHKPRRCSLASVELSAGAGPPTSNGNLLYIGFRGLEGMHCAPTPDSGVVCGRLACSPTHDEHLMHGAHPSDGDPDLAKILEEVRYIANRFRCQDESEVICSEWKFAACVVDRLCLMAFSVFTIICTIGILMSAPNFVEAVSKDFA
Series [5] deals with T2, 5-hydroxytryptamine receptor 3A (Homo sapiens, UniProt P46098).
T2 sequence (P46098 whole entry): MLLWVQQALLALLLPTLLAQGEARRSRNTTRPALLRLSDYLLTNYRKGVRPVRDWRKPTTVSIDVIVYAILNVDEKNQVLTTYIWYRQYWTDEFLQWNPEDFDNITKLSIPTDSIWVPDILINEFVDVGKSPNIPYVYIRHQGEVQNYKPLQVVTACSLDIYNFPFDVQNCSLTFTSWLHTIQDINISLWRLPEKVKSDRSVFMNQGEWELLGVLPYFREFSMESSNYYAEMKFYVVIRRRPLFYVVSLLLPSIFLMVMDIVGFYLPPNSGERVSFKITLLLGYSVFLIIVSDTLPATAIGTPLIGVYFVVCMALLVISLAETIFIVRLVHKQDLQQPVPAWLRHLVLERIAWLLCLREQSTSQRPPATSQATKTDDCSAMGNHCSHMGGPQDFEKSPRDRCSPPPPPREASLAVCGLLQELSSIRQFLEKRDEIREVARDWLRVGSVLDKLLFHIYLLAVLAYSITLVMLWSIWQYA
The experiment in a line: Antagonist activity at human 5-HT3A expressed in HEK293 cells assessed as reduction in acetylcholine-induced activity preincubated for 30 mins followed by addition of acetylcholine measured for 2 mins by Fluo-4AM dye based FLIPR assay. In kind it is cell-based.

Series [6] can be described thus: Metabolic stability in rat microsomes assessed as compound remaining measured after 10 mins. In kind it is ADME, Microsome. The conditions noted are these: read-out: Stability.
Series [7] deals with Neuronal acetylcholine receptor; alpha3/beta4 (Rattus norvegicus, UniProt P04757+P12392). The experiment in a line: Agonist activity at rat alpha3beta4 nAChR expressed in HEK293 cells for 2 mins by FLIPR assay. Format: cell-based.
Chain of Neuronal acetylcholine receptor; alpha3/beta4 (P04757 whole entry): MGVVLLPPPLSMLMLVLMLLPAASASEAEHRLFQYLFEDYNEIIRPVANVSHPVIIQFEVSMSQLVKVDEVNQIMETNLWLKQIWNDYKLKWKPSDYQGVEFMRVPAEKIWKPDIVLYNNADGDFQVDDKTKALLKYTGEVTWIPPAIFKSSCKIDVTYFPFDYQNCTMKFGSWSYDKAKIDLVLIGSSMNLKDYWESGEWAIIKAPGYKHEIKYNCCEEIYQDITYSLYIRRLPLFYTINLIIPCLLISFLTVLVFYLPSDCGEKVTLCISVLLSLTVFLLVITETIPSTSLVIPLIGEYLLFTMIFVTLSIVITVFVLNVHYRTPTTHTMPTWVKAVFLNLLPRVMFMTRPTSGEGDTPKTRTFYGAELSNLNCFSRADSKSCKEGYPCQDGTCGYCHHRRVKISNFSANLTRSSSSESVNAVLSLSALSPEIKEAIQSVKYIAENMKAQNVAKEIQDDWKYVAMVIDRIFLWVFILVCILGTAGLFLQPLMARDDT
Chain of Neuronal acetylcholine receptor; alpha3/beta4 (P12392 whole entry): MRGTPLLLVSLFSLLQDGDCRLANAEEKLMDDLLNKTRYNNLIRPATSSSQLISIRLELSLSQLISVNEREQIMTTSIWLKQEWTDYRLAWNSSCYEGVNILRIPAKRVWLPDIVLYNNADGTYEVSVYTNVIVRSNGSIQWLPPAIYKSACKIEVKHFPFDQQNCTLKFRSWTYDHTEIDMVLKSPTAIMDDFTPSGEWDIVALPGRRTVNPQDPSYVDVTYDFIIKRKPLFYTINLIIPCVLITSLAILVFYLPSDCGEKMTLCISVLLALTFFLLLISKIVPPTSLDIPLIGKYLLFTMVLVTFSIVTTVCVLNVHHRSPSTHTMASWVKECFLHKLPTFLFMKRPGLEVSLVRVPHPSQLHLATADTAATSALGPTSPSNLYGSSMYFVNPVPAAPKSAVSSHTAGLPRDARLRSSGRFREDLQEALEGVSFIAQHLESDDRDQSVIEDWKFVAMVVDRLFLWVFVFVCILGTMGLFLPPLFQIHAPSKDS
Series [8] in a line: Selectivity ratio of IC50 for human 5-HT3A expressed in HEK293 cells to EC50 for rat alpha7 nAChR expressed in HEK293 cells co-expressing human RIC3. In kind it is ADME, cell-based.
A short description of series [9]: Drug uptake in Wistar rat brain at 10 mg/kg, sc measured after 30 mins by LC-MS/MS analysis. In kind it is ADME, organism-based. The conditions noted are these: read-out: Drug uptake.
For series [10], the target named is Neuronal acetylcholine receptor; alpha4/beta2 (Rattus norvegicus, UniProt P09483+P12390). The experiment in a line: Agonist activity at rat alpha4beta2 nAChR expressed in HEK293 cells for 2 mins by FLIPR assay. In kind it is cell-based.
Chain of Neuronal acetylcholine receptor; alpha4/beta2 (P09483 whole entry): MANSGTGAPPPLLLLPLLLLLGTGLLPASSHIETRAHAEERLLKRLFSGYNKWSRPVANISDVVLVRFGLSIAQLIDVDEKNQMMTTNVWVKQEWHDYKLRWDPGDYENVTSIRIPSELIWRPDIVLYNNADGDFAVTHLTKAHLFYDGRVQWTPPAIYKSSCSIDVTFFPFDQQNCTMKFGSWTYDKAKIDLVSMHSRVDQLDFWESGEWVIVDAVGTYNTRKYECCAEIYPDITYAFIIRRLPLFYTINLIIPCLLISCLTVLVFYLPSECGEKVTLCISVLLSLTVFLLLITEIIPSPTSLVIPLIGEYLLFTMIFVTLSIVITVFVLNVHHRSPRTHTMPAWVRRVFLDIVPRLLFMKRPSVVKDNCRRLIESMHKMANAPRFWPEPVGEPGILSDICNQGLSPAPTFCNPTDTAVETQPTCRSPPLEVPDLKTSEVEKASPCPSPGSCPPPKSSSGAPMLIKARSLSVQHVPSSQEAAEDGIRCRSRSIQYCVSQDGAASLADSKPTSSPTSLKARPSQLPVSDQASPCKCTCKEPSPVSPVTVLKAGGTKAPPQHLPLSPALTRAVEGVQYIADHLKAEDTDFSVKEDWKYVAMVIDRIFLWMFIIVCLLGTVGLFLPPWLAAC
Chain of Neuronal acetylcholine receptor; alpha4/beta2 (P12390 whole entry): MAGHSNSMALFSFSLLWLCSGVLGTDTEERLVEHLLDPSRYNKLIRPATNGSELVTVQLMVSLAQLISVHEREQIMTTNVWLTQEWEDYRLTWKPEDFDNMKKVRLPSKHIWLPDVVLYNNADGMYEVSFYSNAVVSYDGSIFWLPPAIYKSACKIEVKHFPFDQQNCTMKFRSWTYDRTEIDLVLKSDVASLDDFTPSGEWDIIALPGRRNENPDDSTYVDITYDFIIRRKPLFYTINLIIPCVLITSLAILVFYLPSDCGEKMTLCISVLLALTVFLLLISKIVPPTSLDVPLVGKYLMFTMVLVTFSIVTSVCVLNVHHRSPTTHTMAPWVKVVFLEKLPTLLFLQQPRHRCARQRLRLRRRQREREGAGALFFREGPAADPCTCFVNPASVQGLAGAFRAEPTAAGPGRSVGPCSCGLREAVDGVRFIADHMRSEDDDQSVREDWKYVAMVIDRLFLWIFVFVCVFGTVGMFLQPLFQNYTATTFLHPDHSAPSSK
In series [11] the target is Nicotinic acetylcholine receptor alpha-1/beta-1/delta/epsilon (Rattus norvegicus, UniProt P09660+P25108+P25109+P25110). Description: Agonist activity at rat alpha1beta1deltaepsilon nAChR expressed in HEK293 cells for 2 mins by FLIPR assay. In kind it is cell-based.
Chain of Nicotinic acetylcholine receptor alpha-1/beta-1/delta/epsilon (P25109 whole entry): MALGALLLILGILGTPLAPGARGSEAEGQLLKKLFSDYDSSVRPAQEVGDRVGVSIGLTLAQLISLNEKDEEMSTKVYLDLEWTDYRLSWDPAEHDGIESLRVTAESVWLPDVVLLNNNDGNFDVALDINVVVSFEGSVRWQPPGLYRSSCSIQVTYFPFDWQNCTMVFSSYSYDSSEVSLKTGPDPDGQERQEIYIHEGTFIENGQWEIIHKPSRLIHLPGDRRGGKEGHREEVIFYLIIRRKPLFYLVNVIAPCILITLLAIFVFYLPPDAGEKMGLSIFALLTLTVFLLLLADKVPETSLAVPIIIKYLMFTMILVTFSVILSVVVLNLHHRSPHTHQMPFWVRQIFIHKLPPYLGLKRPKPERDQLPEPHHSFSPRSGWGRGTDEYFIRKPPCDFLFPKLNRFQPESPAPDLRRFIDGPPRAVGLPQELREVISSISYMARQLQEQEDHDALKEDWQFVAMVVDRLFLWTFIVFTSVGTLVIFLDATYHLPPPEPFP
Chain of Nicotinic acetylcholine receptor alpha-1/beta-1/delta/epsilon (P25108 whole entry): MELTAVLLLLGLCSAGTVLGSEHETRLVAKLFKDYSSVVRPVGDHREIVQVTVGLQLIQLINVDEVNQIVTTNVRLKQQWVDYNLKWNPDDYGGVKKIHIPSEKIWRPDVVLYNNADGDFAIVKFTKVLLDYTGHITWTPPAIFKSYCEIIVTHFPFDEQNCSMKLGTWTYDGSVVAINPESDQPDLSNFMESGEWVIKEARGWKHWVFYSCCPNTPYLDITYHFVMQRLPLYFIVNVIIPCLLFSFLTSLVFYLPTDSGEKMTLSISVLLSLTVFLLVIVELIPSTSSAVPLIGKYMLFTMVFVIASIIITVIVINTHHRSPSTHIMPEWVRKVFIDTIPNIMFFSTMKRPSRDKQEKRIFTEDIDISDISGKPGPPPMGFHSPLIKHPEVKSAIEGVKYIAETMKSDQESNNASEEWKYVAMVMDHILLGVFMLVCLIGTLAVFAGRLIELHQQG
Chain of Nicotinic acetylcholine receptor alpha-1/beta-1/delta/epsilon (P25110 whole entry): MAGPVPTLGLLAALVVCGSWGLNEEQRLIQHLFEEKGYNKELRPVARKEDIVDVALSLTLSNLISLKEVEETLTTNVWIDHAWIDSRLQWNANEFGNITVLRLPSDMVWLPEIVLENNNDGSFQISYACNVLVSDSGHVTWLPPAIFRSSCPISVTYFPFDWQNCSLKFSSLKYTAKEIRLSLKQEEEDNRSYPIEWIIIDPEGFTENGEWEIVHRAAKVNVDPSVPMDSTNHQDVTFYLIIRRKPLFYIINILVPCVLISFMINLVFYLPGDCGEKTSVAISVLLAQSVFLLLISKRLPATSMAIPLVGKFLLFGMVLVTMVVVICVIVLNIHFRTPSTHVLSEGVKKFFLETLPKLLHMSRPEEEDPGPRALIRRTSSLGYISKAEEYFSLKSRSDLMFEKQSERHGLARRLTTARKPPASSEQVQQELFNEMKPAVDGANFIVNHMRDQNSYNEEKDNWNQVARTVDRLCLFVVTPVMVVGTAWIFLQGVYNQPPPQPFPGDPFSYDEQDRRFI
Chain of Nicotinic acetylcholine receptor alpha-1/beta-1/delta/epsilon (P09660 whole entry): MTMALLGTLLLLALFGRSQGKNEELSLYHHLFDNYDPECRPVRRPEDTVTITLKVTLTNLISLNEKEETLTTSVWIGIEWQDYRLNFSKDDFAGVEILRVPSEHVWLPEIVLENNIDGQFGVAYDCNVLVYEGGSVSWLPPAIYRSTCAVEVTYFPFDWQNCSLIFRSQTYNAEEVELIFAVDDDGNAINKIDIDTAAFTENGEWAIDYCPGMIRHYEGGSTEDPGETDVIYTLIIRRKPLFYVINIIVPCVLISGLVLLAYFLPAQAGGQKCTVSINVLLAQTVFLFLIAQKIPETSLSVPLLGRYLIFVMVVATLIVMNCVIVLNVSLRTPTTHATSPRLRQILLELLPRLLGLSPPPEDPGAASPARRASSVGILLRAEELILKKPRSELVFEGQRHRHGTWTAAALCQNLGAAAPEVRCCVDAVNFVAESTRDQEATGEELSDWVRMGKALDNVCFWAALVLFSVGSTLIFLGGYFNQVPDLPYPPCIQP
For series [12], the system named is Mus musculus. Description: Cognitive enhancing effect in C57Bl/6 mouse at 3 and 10 mg/kg, sc administered 30 mins prior to training measured after 24 hrs by novel recognition assay. In kind it is functional, organism-based.
The target of series [13] is T1, Neuronal acetylcholine receptor subunit alpha-7. The experiment in a line: Displacement of [125I]Tyr54-alpha-bungarotoxin from rat alpha7 nAChR expressed in HEK293 cell membranes co-expressing human RIC3 measured after 2 hrs by gamma counting method.
Series [14] in a line: Ratio of drug level in Wistar rat brain to plasma at 10 mg/kg, sc. Format: ADME, organism-based. To be noted: read-out: BPR.
Series [15] addresses T1, Neuronal acetylcholine receptor subunit alpha-7. The experiment in a line: Partial agonist activity at rat alpha7 nAChR expressed in HEK293 cells co-expressing human RIC3 at holding potential of -90 mV by whole-cell voltage clamp technique. Format: cell-based.
Series [16] can be described thus: Selectivity ratio of IC50 for human 5-HT3A expressed in HEK293 cells to EC50 for rat alpha1beta1deltaepsilon nAChR expressed in HEK293 cells. In kind it is ADME, cell-based.
Series [17] can be described thus: Metabolic stability in mouse microsomes assessed as compound remaining measured after 10 mins. Format: ADME, Microsome. To be noted: read-out: Stability.
Series [18] in a line: Selectivity ratio of IC50 for human 5-HT3A expressed in HEK293 cells to EC50 for rat alpha4beta2 nAChR expressed in HEK293 cells. In kind it is ADME, cell-based.
The nature of series [19]: Oral bioavailability in rat at 10 mg/kg. In kind it is ADME, organism-based. To be noted: in vivo.
Series [20] can be described thus: Plasma concentration in Wistar rat at 10 mg/kg, sc measured after 30 mins by LC-MS/MS analysis. In kind it is ADME, organism-based.
Series [21] deals with Voltage-gated inwardly rectifying potassium channel KCNH2 (Homo sapiens, UniProt Q12809). The experiment in a line: Inhibition of human ERG by patch clamp assay.

The text below walks through data of ChEMBL document CHEMBL3877302, “Design and Synthesis of a New Series of 4-Heteroarylamino-1'-azaspiro[oxazole-5,3'-bicyclo[2.2.2]octanes as α7 Nicotinic Receptor Agonists. 1. Development of Pharmacophore and Early Structure-Activity Relationship” (J Med Chem, 2016).

Structures are written as SMILES. The source made the active and inactive calls. The rule behind the calls is not given here. Bounds are passed on as bounds.

Turning to `COc1ccc2nc(NC3=NC[C@@]4(CN5CCC4CC5)O3)sc2c1`, the remaining at 10 min in series [1], in series [6] and in [17] was more than 60% each time. For the same molecule, the clearance in series [2] amounted to 320 mL/min/kg. The “Ratio IC50/EC50” value is recorded as more than 700 in series [3], 66 in [8], more than 700 in [16] and more than 700 in [18]. The EC50 in series [4] is 140 nM; in series [7], more than 100 µM; in series [10], more than 100 µM; in series [11] it was more than 100 µM; in [15] it was 400 nM. The IC50 in [5] is 9.1 µM; in series [21], 1300 nM. Also, the concentration at 0.5 h came to 5.3 µM in [9] and 760 nM in series [20]. The result in [12] was Active. Moreover, in series [13], the Ki lay within 38 to 51 nM. Besides, the Kp in series [14] was 7. For the same molecule, the bioavailability in series [19] worked out at 24%.

The term clearance denotes the rate of elimination divided by the concentration. The low end stands for a low capacity for elimination, the high end for a high capacity for elimination. Broadly, the EC50 is the concentration giving half of the maximal effect. Read a high EC50 as weaker potency. The IC50 is the midpoint of a concentration-inhibition curve. As usually defined, the Ki is the equilibrium dissociation constant of an inhibitor or competing ligand from its target. The term bioavailability denotes the share of a dose that reaches the circulation, judged against a reference dose that is usually intravenous. Lower therefore signals little systemic uptake.
